From patent US20160166604A1, “Thiol-Sensitive Positive Inotropes” (priority 2005, published 2016)
Entries after “also recorded” stand apart in the source; their conditions may differ.

What was measured:
[1] = tested on: cardiac myocytes from WT and Gαq overexpressing FVB/N mice; test: Sarcomere shortening in cardiac myocytes from WT and Gαq overexpressing mice; format: cell-based, mouse; settings: for increase in sarcomere shortening: Gαq myocytes
Description: Cardiac myocytes were isolated from WT and Gαq overexpressing 2-6 month old FVB/N mice, suspended in Tyrode's solution (1 mM calcium) and field stimulated at 0.5 Hz at 23° C. Sarcomere shortening (SS) was assessed by real-time image analysis; data are presented at steady-state (10 minutes drug infusion).

mice cardiomyocytes = test: Whole Ca2+ transients in isolated mouse myocytes (fluo-4, confocal line scan); format: cell-based
Description: Wild type 2-4 month old mice were anesthetized with intraperitoneal pentobarbital sodium (100 mg/kg/ip). Hearts were perfused as previously described. Mongillo, M. et al., Circ. Res., 98, 226-234 (2006). To assess for sarcomere shortening, cells were imaged using field stimulation (Warner instruments) in an inverted fluorescence microscope (Diaphot 200; Nikon, Inc). Sarcomere length was measured by real-time Fourier transform (IonOptix MyoCam, CCCCD100M) and cell twitch amplitude is expressed as a percentage of resting cell length. Twitch kinetics was quantified by measuring the time to peak shortening and the time from peak shortening to 50% relaxation. For whole calcium transient measurements, myocytes were loaded with the Ca^2+ indicator fluo-4/AM (Molecular Probes, 20 μM for 30 min) and Ca^2+ transients were measured under field-stimulation at 0.5 Hz in perfusion solution by confocal laser scanning microscope (LSM510, Carl Zeiss). Digital image analysis used customer-designed programs coded in Interactive Data Language (IDL).
To further explore potential HNO targets, calcium cycling in adult mouse and rat cardiac myocytes was examined. Cells were first exposed to AS for 5-10 min, then washed and loaded with Indo-1 or Fluo-4 for 20 min. Pretreatment with AS was carried out because the drug reacted with the Ca^2+ indicators (both Fluo-4 and Indo-1) and altered their fluorescent properties. In mice, the calcium transient amplitude assessed by confocal line scan imaging increased by ˜40% over baseline with 0.5 mM AS, (n=27, p<0.001) (FIG. 3A-FIG. 3C), time to peak transient was prolonged (FIG. 3D) while the decay time shortened (FIG. 3E). Basal fluorescence (F0) was unchanged by AS pretreatment (FIG. 3F). Similar results were obtained in rat myocytes (using Indo-1) for Ca^2+ transient amplitude (FIG. 3G and FIG. 3H) and decay time (FIG. 3I). The increase in amplitude was not accompanied by an increase in diastolic Ca^2+ level (ratio 405/485=0.239±0.006 (Con) vs. 0.243±0.008 (AS); n.s.; see also FIG. 3A, FIG. 3F and FIG. 3G). Rapid sustained caffeine (10 mM) application abruptly releases all SR Ca^2+ and subsequent [Ca^2+]i decline is mediated mainly via Na/Ca exchange.

RyR2 = target: T1, RyR2 (Mus musculus, UniProt E9Q401); test: Spontaneous Ca2+ sparks and spark frequency in intact murine myocytes; format: cell-based
T1 construct: endogenous in cells; host or cells: freshly isolated adult mouse cardiac myocytes
Description: Freshly isolated mouse cardiac myocytes were loaded with the Ca^2+ indicator fluo-4/AM (Molecular Probes, 20 μM for 30 min). Confocal images were acquired using a confocal laser-scanning microscope (LSM510, Carl Zeiss) with a Zeiss Plan-Neofluor 40× oil immersion objective (NA≈1.3). Fluo-4/AM was excited by an argon laser (488 nm), and fluorescence was measured at >505 nm. Images were taken in the line-scan mode, with the scan line parallel to the long axis of the myocytes. Each image consisted of 512 line scans obtained at 1.92 ms intervals, each comprising 512 pixels at 0.10 μm separation. Digital image analysis used customer-designed programs coded in Interactive Data language (IDL) and a modified spark detection algorithm. Cheng, H. et al., Biophys. J., 76, 606-617 (1999).
Nitroxyl (HNO) confers positive inotropy in vivo. Here, it was determined whether HNO action stems from a direct influence on sarcoplasmic reticulum (SR) Ca^2+ cycling, involving enhanced Ca^2+ release from ryanodine receptors (RyR2). Myocytes were isolated from ST mice, suspended in Tyrode's solution (1 mM Ca^2+) and field stimulated (0.5 Hz, 25° C.). Sarcomere shortening (SS) was assessed by real-time image analysis, Ca^2+ transients from Indo-1 fluorescence. RyR2 activity was determined by optical imaging of Ca^2+ release from single Ca^2+ release units. The HNO donor Angeli's Salt (AS) induced dose-dependent inotropy (SS: 73±31% at 0.5 mM; 131±31% at 1 mM; all n=15, p<0.05 vs. base; <0.1 mM: no effect). In contrast, the NO donor DEA/NO reduced SS by 55-65% at 5-50 μM (both p<0.05 vs. base), with no effect at higher doses. […] However, co-infusion with the thiol-donating compound N-acetyl-L-cysteine (NAC, 3 mM) abolished AS inotropy.

T1 sequence (E9Q401 whole entry): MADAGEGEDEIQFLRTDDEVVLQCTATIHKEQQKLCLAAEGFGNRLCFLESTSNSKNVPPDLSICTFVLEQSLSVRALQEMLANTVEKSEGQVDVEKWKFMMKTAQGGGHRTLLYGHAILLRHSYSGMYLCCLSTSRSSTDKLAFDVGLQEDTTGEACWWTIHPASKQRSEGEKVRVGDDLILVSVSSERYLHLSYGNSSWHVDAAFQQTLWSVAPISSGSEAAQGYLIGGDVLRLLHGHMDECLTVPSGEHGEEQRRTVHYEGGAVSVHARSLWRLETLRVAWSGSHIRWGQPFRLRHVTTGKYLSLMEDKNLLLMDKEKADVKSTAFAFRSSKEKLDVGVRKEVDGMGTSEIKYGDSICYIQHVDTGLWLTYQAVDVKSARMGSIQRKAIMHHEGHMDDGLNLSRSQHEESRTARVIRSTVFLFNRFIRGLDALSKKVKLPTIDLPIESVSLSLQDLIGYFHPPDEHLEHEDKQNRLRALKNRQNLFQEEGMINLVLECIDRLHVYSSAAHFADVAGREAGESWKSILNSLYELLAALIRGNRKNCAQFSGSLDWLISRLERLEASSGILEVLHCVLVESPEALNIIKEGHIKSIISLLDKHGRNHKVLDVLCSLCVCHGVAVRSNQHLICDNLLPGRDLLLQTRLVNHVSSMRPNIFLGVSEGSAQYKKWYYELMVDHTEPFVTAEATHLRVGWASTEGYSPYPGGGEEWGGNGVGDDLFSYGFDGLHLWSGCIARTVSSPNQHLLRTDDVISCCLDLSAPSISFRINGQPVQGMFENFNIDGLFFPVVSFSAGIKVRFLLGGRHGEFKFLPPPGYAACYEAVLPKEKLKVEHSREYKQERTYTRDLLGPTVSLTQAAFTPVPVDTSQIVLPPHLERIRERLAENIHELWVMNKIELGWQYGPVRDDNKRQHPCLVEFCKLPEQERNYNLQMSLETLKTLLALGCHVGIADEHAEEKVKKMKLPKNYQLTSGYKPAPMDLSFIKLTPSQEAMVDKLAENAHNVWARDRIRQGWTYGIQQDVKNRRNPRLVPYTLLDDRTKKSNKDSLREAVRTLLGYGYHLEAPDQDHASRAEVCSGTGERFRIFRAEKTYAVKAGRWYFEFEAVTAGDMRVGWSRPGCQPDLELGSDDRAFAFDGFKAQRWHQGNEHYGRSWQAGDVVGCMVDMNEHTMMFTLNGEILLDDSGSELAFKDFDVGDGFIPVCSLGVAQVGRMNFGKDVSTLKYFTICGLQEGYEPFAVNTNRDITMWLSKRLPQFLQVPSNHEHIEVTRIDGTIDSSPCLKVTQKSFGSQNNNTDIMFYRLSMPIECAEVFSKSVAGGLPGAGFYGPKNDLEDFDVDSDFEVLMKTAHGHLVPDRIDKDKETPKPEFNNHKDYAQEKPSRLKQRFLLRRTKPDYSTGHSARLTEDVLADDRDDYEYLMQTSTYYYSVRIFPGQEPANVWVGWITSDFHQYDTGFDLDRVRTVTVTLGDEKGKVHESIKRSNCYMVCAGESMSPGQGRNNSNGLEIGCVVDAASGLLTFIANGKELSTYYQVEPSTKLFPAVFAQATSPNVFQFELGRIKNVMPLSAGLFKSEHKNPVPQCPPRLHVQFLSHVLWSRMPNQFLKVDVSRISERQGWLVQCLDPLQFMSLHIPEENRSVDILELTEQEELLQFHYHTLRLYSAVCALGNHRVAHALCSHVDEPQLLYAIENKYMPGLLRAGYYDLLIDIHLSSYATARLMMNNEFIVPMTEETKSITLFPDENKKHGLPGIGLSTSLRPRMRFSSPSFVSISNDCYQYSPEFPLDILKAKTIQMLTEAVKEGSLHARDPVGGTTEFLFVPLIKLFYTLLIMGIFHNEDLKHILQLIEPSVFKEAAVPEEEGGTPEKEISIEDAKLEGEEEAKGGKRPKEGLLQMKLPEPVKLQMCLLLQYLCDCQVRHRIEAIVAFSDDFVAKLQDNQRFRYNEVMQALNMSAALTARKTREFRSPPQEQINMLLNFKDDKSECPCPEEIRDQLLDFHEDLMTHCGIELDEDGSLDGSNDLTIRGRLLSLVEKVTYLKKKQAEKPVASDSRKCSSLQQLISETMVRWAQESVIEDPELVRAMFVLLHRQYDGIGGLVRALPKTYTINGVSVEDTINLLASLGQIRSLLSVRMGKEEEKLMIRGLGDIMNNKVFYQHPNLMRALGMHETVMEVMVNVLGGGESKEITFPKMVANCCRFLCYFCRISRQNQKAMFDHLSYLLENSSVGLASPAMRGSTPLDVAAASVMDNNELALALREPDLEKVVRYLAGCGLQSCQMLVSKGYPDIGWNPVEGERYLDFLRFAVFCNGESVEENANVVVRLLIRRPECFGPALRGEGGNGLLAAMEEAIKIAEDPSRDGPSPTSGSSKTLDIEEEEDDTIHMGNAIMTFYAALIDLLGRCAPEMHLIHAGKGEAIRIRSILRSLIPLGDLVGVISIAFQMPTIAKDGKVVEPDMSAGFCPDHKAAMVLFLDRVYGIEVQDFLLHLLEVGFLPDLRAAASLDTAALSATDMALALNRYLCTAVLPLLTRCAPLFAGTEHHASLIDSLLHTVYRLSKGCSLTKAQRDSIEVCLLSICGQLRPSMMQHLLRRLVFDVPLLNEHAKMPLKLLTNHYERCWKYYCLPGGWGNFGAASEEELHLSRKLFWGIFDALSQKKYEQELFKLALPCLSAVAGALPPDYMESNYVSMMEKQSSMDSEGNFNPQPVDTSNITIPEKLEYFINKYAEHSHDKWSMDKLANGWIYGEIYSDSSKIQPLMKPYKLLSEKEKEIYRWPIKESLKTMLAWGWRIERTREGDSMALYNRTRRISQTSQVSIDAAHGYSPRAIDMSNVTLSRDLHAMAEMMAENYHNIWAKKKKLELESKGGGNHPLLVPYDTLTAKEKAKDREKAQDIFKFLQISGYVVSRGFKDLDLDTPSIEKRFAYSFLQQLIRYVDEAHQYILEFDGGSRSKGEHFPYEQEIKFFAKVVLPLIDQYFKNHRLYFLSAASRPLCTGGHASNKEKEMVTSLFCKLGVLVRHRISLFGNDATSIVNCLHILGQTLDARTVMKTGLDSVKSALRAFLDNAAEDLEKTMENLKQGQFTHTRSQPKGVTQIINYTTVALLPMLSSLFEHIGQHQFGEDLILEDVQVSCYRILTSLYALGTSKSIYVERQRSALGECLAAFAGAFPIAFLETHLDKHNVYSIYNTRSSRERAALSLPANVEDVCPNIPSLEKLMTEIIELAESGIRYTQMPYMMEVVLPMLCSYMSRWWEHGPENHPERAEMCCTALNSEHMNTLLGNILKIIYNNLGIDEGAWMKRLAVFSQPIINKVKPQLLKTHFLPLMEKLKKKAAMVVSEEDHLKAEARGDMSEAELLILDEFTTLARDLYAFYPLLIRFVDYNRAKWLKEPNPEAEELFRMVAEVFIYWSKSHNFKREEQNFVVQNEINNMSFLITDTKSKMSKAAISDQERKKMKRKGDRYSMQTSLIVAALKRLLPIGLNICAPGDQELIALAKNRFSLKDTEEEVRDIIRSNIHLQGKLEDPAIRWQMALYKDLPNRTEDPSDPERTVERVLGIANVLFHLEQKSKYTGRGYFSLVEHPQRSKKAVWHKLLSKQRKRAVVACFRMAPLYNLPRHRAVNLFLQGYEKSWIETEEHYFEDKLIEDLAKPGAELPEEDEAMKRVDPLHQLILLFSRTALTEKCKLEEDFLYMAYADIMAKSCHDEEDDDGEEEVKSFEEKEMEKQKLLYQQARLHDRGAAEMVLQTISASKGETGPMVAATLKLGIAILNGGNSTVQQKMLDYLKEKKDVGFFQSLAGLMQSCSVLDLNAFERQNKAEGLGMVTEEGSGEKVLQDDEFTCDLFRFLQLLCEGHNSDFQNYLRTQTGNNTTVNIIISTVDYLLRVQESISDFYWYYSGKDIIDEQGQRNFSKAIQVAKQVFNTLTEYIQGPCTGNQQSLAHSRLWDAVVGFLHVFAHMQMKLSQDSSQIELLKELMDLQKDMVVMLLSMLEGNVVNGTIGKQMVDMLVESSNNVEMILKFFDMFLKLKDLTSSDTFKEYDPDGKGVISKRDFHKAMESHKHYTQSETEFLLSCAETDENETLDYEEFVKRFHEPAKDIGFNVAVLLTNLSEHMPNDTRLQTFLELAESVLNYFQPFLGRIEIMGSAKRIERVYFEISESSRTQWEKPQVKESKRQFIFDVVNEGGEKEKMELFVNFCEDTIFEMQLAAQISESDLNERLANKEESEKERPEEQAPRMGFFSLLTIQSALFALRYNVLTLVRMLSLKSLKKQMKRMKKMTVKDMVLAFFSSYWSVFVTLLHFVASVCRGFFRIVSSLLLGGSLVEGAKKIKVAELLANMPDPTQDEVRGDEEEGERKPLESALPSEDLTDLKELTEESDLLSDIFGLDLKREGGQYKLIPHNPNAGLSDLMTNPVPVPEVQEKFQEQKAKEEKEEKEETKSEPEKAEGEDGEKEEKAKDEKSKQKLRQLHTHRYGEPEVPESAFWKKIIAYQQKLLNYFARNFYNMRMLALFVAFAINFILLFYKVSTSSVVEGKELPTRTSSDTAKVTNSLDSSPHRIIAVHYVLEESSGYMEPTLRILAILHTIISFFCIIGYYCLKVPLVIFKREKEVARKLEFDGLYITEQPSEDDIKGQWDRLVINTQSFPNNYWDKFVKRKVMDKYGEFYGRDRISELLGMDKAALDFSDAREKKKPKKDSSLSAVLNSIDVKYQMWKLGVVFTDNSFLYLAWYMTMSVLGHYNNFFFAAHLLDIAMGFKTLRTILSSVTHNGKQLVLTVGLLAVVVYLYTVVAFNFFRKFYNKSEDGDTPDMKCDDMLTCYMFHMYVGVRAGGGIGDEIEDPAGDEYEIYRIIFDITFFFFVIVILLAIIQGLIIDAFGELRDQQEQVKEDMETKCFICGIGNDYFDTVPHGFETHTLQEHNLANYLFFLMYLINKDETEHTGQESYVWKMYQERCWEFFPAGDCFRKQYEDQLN

calcium spark frequency relative to controls (RyR2; 0.5 mM AS): ~7 times
increase of calcium spark frequency (RyR2; 0.5 mM AS): 7 fold
frequency of calcium sparks (CSF) (RyR2; 0.5 mM AS, controls 4±1): 26±3 sparks/100 μm/s
rise in Ca2+ spark frequency (RyR2; 1 mM AS, n=10-24): 18 fold
individual spark amplitude, rise time and spatial width (RyR2; AS): unaltered
AS-induced increase in spark frequency after thiol (GSH) pre-treatment (RyR2; reduced glutathione preincubation before AS): prevented; also recorded: abrogated
Structure (SMILES): [Na+].[Na+].[O-][N+]([O-])=NO [AS, Angeli's salt]
positive inotropic effect in Gαq myocytes compared with WT cells ([1]; AS infusion): not significantly different
increase in sarcomere shortening ([1]; AS 250 μM): 22±11%
increase in sarcomere shortening ([1]; AS 500 μM): 40±11%
Ca2+ transient decay time (mice cardiomyocytes; 0.5 mM AS pretreatment): shortened
time to peak Ca2+ transient (mice cardiomyocytes; 0.5 mM AS pretreatment): prolonged
increase of calcium transient amplitude over baseline (mice cardiomyocytes; 0.5 mM AS pretreatment, n=27): ~40%
basal fluorescence (F0) (mice cardiomyocytes; AS pretreatment): unchanged
Ca2+ transients (mice cardiomyocytes; AS, isolated murine cardiomyocytes (Example 7)): without changes
